Reference: patent publication US11767341B2, “Lincosamide antibiotics and uses thereof” (President and Fellows of Harvard College, priority 2017, dated 2023)
Converted amounts (≈) assume the structure as drawn. Like-named read-outs stand apart in the source and are kept apart here.

Key:
Assay in all cases: MIC determination
Assay type in all cases: cell-based
S. aureus ATCC 29213 = conditions: Staphylococcus aureus
S. aureus BAA 977 iErmA = conditions: Staphylococcus aureus, BAA977
[1] = test system: S. aureus Micromyx USA 300; conditions: Staphylococcus aureus, USA300
S. aureus MMX 3035 cErmA = conditions: Staphylococcus aureus, MMX3035CERMA
S. pneumoniae ATCC 49619 = conditions: Streptococcus pneumoniae, ATCC49619; S. pneumoniae ATCC 49619; read-out: MIC
[2] = test system: S. pneumoniae MMX 3028 cErmB; conditions: Streptococcus pneumoniae, MMX3028CERMB
[3] = test system: S. pneumoniae MMX 3031 cMefA; conditions: Streptococcus pneumoniae, MMX3031CMEFA
S. pyogenes ATCC 19615 = conditions: Streptococcus pyogenes, ATCC19615; S. pyogenes ATCC 19615; read-out: MIC
[4] = test system: S. pyogenes MMX 946 Macrolide-Resistant; conditions: Streptococcus pyogenes
E. faecalis ATCC 29212 = conditions: Enterococcus faecalis
[5] = test system: E. faecalis MMX 847 Macrolide-Resistant; conditions: Enterococcus faecalis
C. difficile BAA 1805 = conditions: Clostridioides difficile, BAA1805
B. fragilis ATCC 25285 = conditions: Bacteroides fragilis, ATCC25285
E. coli ATCC 25922 = conditions: Escherichia coli
[6] = test system: E. coli MMX TolC parent strain; conditions: Escherichia coli
E. coli MMX 0121 ΔTolC = conditions: Escherichia coli
P. aeruginosa ATCC 27853 = conditions: Pseudomonas aeruginosa, ATCC27853
[7] = test system: P. aeruginosa MMX Mex parent strain; conditions: Pseudomonas aeruginosa
[8] = test system: P. aeruginosa MMX 3476 Δmex; conditions: Pseudomonas aeruginosa
H. influenzae ATCC 49247 = conditions: Haemophilus influenzae, ATCC49247
[9] = ATCC29213, S. aureus ATCC 29213, read-out: MIC
[10] = S. aureus Micromyx USA 300, read-out: MIC
[11] = S. pneumoniae MMX 3028 cErmB, read-out: MIC
[12] = C. difficile BAA 1805, read-out: MIC
[13] = B. fragilis ATCC 25285, read-out: MIC
[14] = S. pyogenes MMX 946 Macrolide-Resistant (MacRes), read-out: MIC
[15] = H. influenzae ATCC 49247, read-out: MIC

Compound	MIC (S. aureus ATCC 29213; [9]) [µg/mL]	MIC (S. aureus BAA 977 iErmA) [µg/mL]	MIC [1, 10] [µg/mL]	MIC (S. aureus MMX 3035 cErmA) [µg/mL]	MIC (S. pneumoniae ATCC 49619) [µg/mL]	MIC [3] [µg/mL]	MIC (S. pyogenes ATCC 19615) [µg/mL]	MIC [4] [µg/mL]	MIC (E. faecalis ATCC 29212; ATCC29212, read-out: MIC) [µg/mL]	MIC [5] [µg/mL]	MIC (C. difficile BAA 1805; [12]) [µg/mL]	MIC (E. coli ATCC 25922; ATCC25922) [µg/mL]	MIC [6] [µg/mL]	MIC (E. coli MMX 0121 ΔTolC) [µg/mL]	MIC (P. aeruginosa ATCC 27853) [µg/mL]	MIC [7] [µg/mL]	MIC [8] [µg/mL]	MIC (H. influenzae ATCC 49247) [µg/mL]	MIC [2] [µg/mL]	MIC (B. fragilis ATCC 25285) [µg/mL]	also measured
C=CC1=CCO[C@@H]2[C@H](CN[C@@H]2C(=O)N[C@H]([C@H](C)Cl)[C@H]2OC(SC)[C@H](O)[C@H](O)C2O)C1 (stereo partly shown) [FSA-507041]	0.5 (≈ 1.08 µM)	0.5 (≈ 1.08 µM)	0.25 (≈ 0.54 µM)	> 32	≤ 0.03	≤ 0.03	0.06 (≈ 0.13 µM)	> 32	2 (≈ 4.32 µM)	> 32	0.5 (≈ 1.08 µM)	> 32	> 32	16 (≈ 34.6 µM)	> 32	> 32	> 32	16 (≈ 34.6 µM)	–	–	MIC [2, 11]: 32 µg/mL (≈ 69.1 µM); MIC (B. fragilis ATCC 25285; [13]): 2 µg/mL (≈ 4.32 µM)
CSC1O[C@H]([C@H](NC(=O)[C@H]2NC[C@@H]3CC(c4ccc(F)cc4)=CCO[C@H]32)[C@H](C)Cl)C(O)[C@@H](O)[C@H]1O (stereo partly shown) [FSA-507057]	2 (≈ 3.77 µM)	1 (≈ 1.88 µM)	0.5 (≈ 0.942 µM)	> 64	≤ 0.06	≤ 0.06	0.12 (≈ 0.226 µM)	> 64	1 (≈ 1.88 µM)	> 64	16 (≈ 30.1 µM)	> 64	> 64	64 (≈ 121 µM)	> 64	> 64	> 64	64 (≈ 121 µM)	64 (≈ 121 µM)	64 (≈ 121 µM)	–
Cc1ccc(S(=O)(=O)OCC2O[C@H]([C@H](NC(=O)[C@H]3NC[C@@H]4CC=CCO[C@H]43)[C@@H](C)O)C(O)[C@@H](O)[C@H]2O)cc1 (stereo partly shown) [FSA-211030]	–	> 64	–	> 64	32 (≈ 57.5 µM)	32 (≈ 57.5 µM)	1 (≈ 1.8 µM)	> 64	–	> 64	–	> 64	> 64	> 64	> 64	> 64	> 64	> 64	> 64	> 64	MIC (S. aureus ATCC 29213; ATCC29213): > 64 µg/mL; MIC [1]: > 64 µg/mL; MIC (E. faecalis ATCC 29212; ATCC29212): > 64 µg/mL; MIC (C. difficile BAA 1805): > 64 µg/mL
CSC1O[C@H]([C@H](NC(=O)[C@H]2NC[C@@H]3CC(c4ccc(C(F)(F)F)cc4)=CCO[C@H]32)[C@H](C)Cl)C(O)[C@@H](O)[C@H]1O (stereo partly shown) [FSA-507060]	2 (≈ 3.44 µM)	1 (≈ 1.72 µM)	0.5 (≈ 0.861 µM)	–	0.5 (≈ 0.861 µM)	0.25 (≈ 0.43 µM)	0.25 (≈ 0.43 µM)	–	8 (≈ 13.8 µM)	–	32 (≈ 55.1 µM)	–	–	16 (≈ 27.5 µM)	> 64	> 64	> 64	–	16 (≈ 27.5 µM)	–	MIC (S. aureus MMX 3035 cErmA; S. aureus MMX 3035 cErmA, read-out: MIC): 32 µg/mL (≈ 55.1 µM); MIC [4, 14]: 32 µg/mL (≈ 55.1 µM); MIC ([5]; E. faecalis MMX 847 Macrolide-Resistant (MacRes), read-out: MIC): 32 µg/mL (≈ 55.1 µM); MIC (B. fragilis ATCC 25285; [13]): 32 µg/mL (≈ 55.1 µM); MIC (E. coli ATCC 25922; ATCC25922, E. coli ATCC 25922, read-out: MIC): 64 µg/mL (≈ 110 µM); MIC ([6]; E. coli MMX TolC parent strain, read-out: MIC): 64 µg/mL (≈ 110 µM); MIC (H. influenzae ATCC 49247; [15]): 32 µg/mL (≈ 55.1 µM)
CSC1O[C@H]([C@H](NC(=O)[C@H]2NC[C@@H]3C=C(c4ccc(C(F)(F)F)cc4)CCO[C@@H]23)[C@H](C)Cl)C(O)[C@@H](O)[C@H]1O (stereo partly shown) [FSA-507053]	0.25 (≈ 0.43 µM)	0.25 (≈ 0.43 µM)	0.12 (≈ 0.207 µM)	> 64	0.25 (≈ 0.43 µM)	0.12 (≈ 0.207 µM)	≤ 0.06	–	2 (≈ 3.44 µM)	> 64	8 (≈ 13.8 µM)	> 64	> 64	16 (≈ 27.5 µM)	> 64	> 64	> 64	16 (≈ 27.5 µM)	–	16 (≈ 27.5 µM)	MIC [2, 11]: 32 µg/mL (≈ 55.1 µM); MIC [4, 14]: 32 µg/mL (≈ 55.1 µM)
CSC1O[C@H]([C@H](NC(=O)[C@H]2NC[C@@H]3C=C(c4ccccc4)CCO[C@@H]23)[C@H](C)Cl)C(O)[C@@H](O)[C@H]1O (stereo partly shown) [FSA-507031]	–	> 32	–	> 32	32 (≈ 62.4 µM)	16 (≈ 31.2 µM)	32 (≈ 62.4 µM)	> 32	–	> 32	–	> 32	> 32	> 32	> 32	> 32	> 32	–	> 32	–	MIC (S. aureus ATCC 29213; ATCC29213): > 32 µg/mL; MIC [1]: > 32 µg/mL; MIC (E. faecalis ATCC 29212; ATCC29212): > 32 µg/mL; MIC (C. difficile BAA 1805): > 32 µg/mL; MIC (B. fragilis ATCC 25285; [13]): 32 µg/mL (≈ 62.4 µM); MIC (H. influenzae ATCC 49247; [15]): 8 µg/mL (≈ 15.6 µM)
CSC1O[C@H]([C@H](NC(=O)[C@H]2NC[C@@H]3CC(c4ccccc4)=CCO[C@H]32)[C@H](C)Cl)C(O)[C@@H](O)[C@H]1O (stereo partly shown) [FSA-507056]	1 (≈ 1.95 µM)	1 (≈ 1.95 µM)	0.5 (≈ 0.975 µM)	> 32	0.25 (≈ 0.487 µM)	0.12 (≈ 0.234 µM)	0.25 (≈ 0.487 µM)	> 32	2 (≈ 3.9 µM)	> 32	16 (≈ 31.2 µM)	> 32	> 32	> 32	> 32	> 32	> 32	> 32	> 32	> 32	–
C[C@@H](O)[C@@H](NC(=O)[C@H]1NC[C@@H]2CC=CCO[C@H]21)[C@H]1OC(CN=[N+]=[N-])[C@H](O)[C@H](O)C1O (stereo partly shown) [FSA-211064]	–	> 64	–	> 64	16 (≈ 37.4 µM)	16 (≈ 37.4 µM)	4 (≈ 9.36 µM)	> 64	–	> 64	64 (≈ 150 µM)	> 64	> 64	> 64	> 64	> 64	> 64	> 64	> 64	> 64	MIC (S. aureus ATCC 29213; ATCC29213): > 64 µg/mL; MIC [1]: > 64 µg/mL; MIC (E. faecalis ATCC 29212; ATCC29212): > 64 µg/mL
